Measurements: patent US8846903B2, “Acyl-urea derivatives and uses thereof” (Yissum Research Development Company of the Hebrew …, priority 2007, dated 2014)
“And” between values parts separate entries of the source, which are not always exact repeats. Equal entries are not always repeated.

Legend:
[1] = system: rats; test: Maximal electroshock seizure test (MES) in rats; assay type: in vivo; conditions: for ED50: Rattus norvegicus; for Fraction of rats which responded to the treatment: MES
Excerpt: Briefly, Maximal Electroshock Seizure (MES) assay measures drug capacity to prevent seizure spread and is thus considered to model generalized tonic-clonic seizures. […] The current was delivered to the subjects by means of corneal electrodes to produce tonic hind limb extension. Animals not displaying tonic hind limb extension were considered affected positively by the tested compound.

[2] = system: rats; test: Subcutaneous metrazol seizure threshold test (scMet) in rats; assay type: in vivo; conditions: for ED50: Rattus norvegicus, po; for ED50 / ED50 scMet in Rats: rats, scMet model, oral administration (stated for Compound 1); for Fraction of rats which responded to the treatment: scMet
Experimental: Subcutaneous Metrazole Seizure Threshold Test (scMet) assay measures the ability of an agent to elevate seizure threshold and is considered to model generalized absence seizures. The assay was performed by subcutaneous injection of 85 mg/kg of the convulsant agent metrazole that induces clonic seizures in at least 97% of all animal models (rats and mice).

[3] = system: mice; test: Psychomotor seizure (6 Hz, 32 mA) assay in mice; assay type: in vivo; conditions: Mus musculus, ip, intraperitoneal
Experimental: In a third model, the compounds were tested for their ability to block 6 Hz (32 mA) seizures following intraperitoneal administration thereof to male mice. This test is aimed at identifying new drug candidates for the treatment of therapy-resistant partial seizures.
(§1) Briefly, psychomotor seizure (6-Hz) assay measures the resistance of a subject to induced psychomotor seizures. The assay was conducted in mice which were pretreated with the test compound. At varying times after treatment, individual subjects were challenged with sufficient current of 32 mA at 6 Hz for 3 seconds, or 44 mA at 6 Hz for 3 seconds, delivered through corneal electrodes to elicit a psychomotor seizure. Animals which were not affected by the current were considered affected positively by the tested compound, thus compounds which were found active in this test are considered promising novel drug candidates for the treatment of therapy-resistant seizures.

[4] = system: mice; test: Psychomotor seizure (6 Hz, 44 mA) assay in mice; assay type: in vivo; conditions: Mus musculus
Experimental: as §1

[5] = system: rats; test: Hippocampal kindling screen in rats; assay type: in vivo; conditions: for ED50: Rattus norvegicus, ip
Experimental: In a fifth model, the hippocampal kindling assay was used to identify new drug candidates effective for the treatment of difficult-to-control seizure types and complex partial seizures, as well as compounds that may be effective as mood stabilizer for treating bipolar disorder, and was conducted according to the protocol described therein.
Briefly, this test was conducted by using a bipolar stimulating electrode which was implanted in the hippocampus of rats, and the rats were kindled according to a described method. One week after implantation of the electrodes, the rats were stimulated with supra-threshold trains of 200 μA and 50 Hz for 10 seconds every 30 minutes for 6 hours on alternate days until the animals were fully kindled. […] The behavioral seizures were scored according to the following criteria (“seizure score”): stage 1—mouth and facial clonus; stage 2—stage 1 plus head nodding; stage 3—stage 2 plus forelimb clonus; stage 4—stage 3 plus rearing; and stage 5—stage 4 plus repeated rearing and falling.
For these studies, each of the compounds was evaluated for its ability to block the kindled motor seizure (seizure scores 4 and 5) and limbic behavioral seizures (seizure score between 1 and 3). Additionally the new drug candidate was evaluated for their ability to reduce after discharge duration. The term “after-discharge-duration” is the duration (measured in seconds) of the stages defined above, which are elicited by the electrical currents delivered to the rats.
At least one week after the fully kindled state was reached, a dose of the test compound was administered intraperitoneally and its effect on behavioral seizure score and after-discharge-duration following 200 μA stimulation was assessed at various time intervals before drug administration and after drug administration. Animals not displaying stage 4 or 5 were considered affected positively from seizure generalization.

[6] = in vivo; conditions: rat, po
Experimental: (§2) The neurotoxicity of the compounds of the present embodiments was tested using rats which were treated by oral administration, and evaluated according to the “gait and stance” test, which assesses minimal neurotoxicity. […] The median neurological toxic dose (TD50) was used for quantization of neurotoxicity.

[7] = system: rats; test: Neurotoxicity, gait and stance test in rats (TD50); conditions: oral administration, median neurological toxic dose
Experimental: as §2

[8] = system: Sprague Dawley rats; test: Acute toxicity (acute motor impairment) after i.p. administration to rats; assay type: in vivo
Experimental: Acute toxicity was determined by recording acute motor impairment after three doses of 30, 100 and 300 mg/kg of the tested compounds. The compounds were administered by the intraperitoneal (i.p.) route to three groups of 4 Sprague Dawley rats. […]

[9] = system: mice; conditions: reported by Spielman et al. [19]; cited from earlier work
[10] = system: mice; conditions: reported by Spielman et al. [19]; cited from earlier work; remark: listed apart in the source
[11] = system: mice; conditions: tested by Spielman and co-workers; cited from earlier work
[12] = system: mice; test: Bicuculline (BIC) clonic seizure assay in mice; assay type: in vivo; conditions: Mus musculus, sc, BIC 2.7 mg/kg s.c., read-out: Bicucullin ED50
[13] = system: mice; test: animal or person; assay type: in vivo; conditions: Mus musculus, sc, read-out: Picrotoxin ED50
[14] = system: rats; conditions: results disclosed in the art; cited from earlier work
[15] = system: rats; conditions: results disclosed in the art; cited from earlier work; remark: listed apart in the source
[16] = system: rats; conditions: oral administration, literature values; cited from earlier work
[17] = system: mice; conditions: from [31]; cited from earlier work
[18] = system: mice; conditions: from [31]; cited from earlier work; remark: listed apart in the source

Row | SMILES | ED50 ([1]; rats, MES model) | ED50 [2] | ED50 [3] | ED50 [4] | TD50 [6] | anti-convulsant activity [11] | melting point | further results
1 | CCCC(C(=O)NC(N)=O)C(C)C (racemic) [Compound 1, 1-(2-isopropylpentanoyl)urea] | 16 mg/kg | 45 mg/kg | 42.2 mg/kg | 71 mg/kg | 95 mg/kg | – | – | ED50 scMet in Rats [2]: 45.4 mg/kg; ED50 ([5]; rats, intraperitoneal): > 94 mg/kg; TD50 in Rats [7]: 94.5 mg/kg
2 | CC[C@@H](C)[C@@H](CC)C(=O)NC(N)=O (racemic) [Compound 4, 1-(2-ethyl-3-methyl-pentanoyl)-urea] | 24 mg/kg | 14 mg/kg | 21 mg/kg | 48 mg/kg | 97 mg/kg | lack beneficial activity | – | toxicity profile (animals toxic/tested) ([8]; 100 mg/kg i.p., 0.25 hours): 0/2; toxicity profile (animals toxic/tested) ([8]; 100 mg/kg i.p., 0.5 hours): 1/2; toxicity profile (animals toxic/tested) ([8]; 100 mg/kg i.p., 1 hour): 1/2; toxicity profile (animals toxic/tested) ([8]; 100 mg/kg i.p., 2 hours): 0/2; toxicity profile (animals toxic/tested) ([8]; 100 mg/kg i.p., 4 hours): 0/2; toxicity profile (animals toxic/tested) ([8]; 300 mg/kg i.p., 0.25 hours): 2/2; toxicity profile (animals toxic/tested) ([8]; 300 mg/kg i.p., 0.5 hours): 2/2; toxicity profile (animals toxic/tested) ([8]; 300 mg/kg i.p., 1 hour): 2/2; toxicity profile (animals toxic/tested) ([8]; 300 mg/kg i.p., 2 hours): 2/2; toxicity profile (animals toxic/tested) ([8]; 300 mg/kg i.p., 4 hours): 2/2; activity in the MES assay [9]: inactive; activity in the scMet assay [10]: only active at toxic doses
3 | CCC[C@H](C(=O)NC(N)=O)C(C)C (stereo in doubt) [Compound 1R, R-1-(2-isopropylpentanoyl)urea] | – | – | 43 mg/kg | 56 mg/kg | – | – | – | –
4 | CCC[C@@H](C(=O)NC(N)=O)C(C)C [Compound 1S, S-1-(2-isopropylpentanoyl)urea] | – | – | 46 mg/kg | 75 mg/kg | – | – | – | –
5 | CC(C)C(C(=O)NC(N)=O)C(C)C [Compound 2, 1-(2-isopropyl-3-methylbutanoyl)urea] | 33 mg/kg | 16 mg/kg | 43.3 mg/kg | 48.6 mg/kg | – | – | 199 to 200 °C | Fraction of rats which responded to the treatment ([1]; dose 15 mg/kg): 1/8; Fraction of rats which responded to the treatment ([1]; dose 30 mg/kg): 5/8; Fraction of rats which responded to the treatment ([1]; dose 60 mg/kg): 5/8; Fraction of rats which responded to the treatment ([1]; dose 120 mg/kg): 8/8; ED50 MES in Rats ([1]; rats, MES model): 32.7 mg/kg; ED50 scMet in Rats [2]: 15.7 mg/kg; Fraction of rats which responded to the treatment ([2]; dose 6 mg/kg): 1/8; Fraction of rats which responded to the treatment ([2]; dose 12 mg/kg): 2/8; Fraction of rats which responded to the treatment ([2]; dose 25 mg/kg): 6/8; Fraction of rats which responded to the treatment ([2]; dose 50 mg/kg): 8/8; ED50 ([5]; rats, intraperitoneal): > 200 mg/kg
6 | CC(C)(C)CC(=O)NC(N)=O [Compound 3, 1-(3,3-dimethyl-butyryl)urea] | 63.9 mg/kg | 26 mg/kg | 80 mg/kg | – | 143 mg/kg | – | 174 to 175 °C | ED50 ([5]; rats, intraperitoneal): 35 mg/kg; After Discharge Duration After administration ([5]; individual kindled rats, 15 minutes after intraperitoneal administration, before: 93-103 (rat 1), 28-75 (rat 2)): significantly decreased and 4 sec and 14 sec; Seizure Score After administration ([5]; individual kindled rats, 15 minutes after intraperitoneal administration, score before administration 5): 0; ED50 Hippocampal kindling in Rats ([5]; rats, intraperitoneal): 35.1 mg/kg; ED50 [12]: 205 mg/kg; ED50 [13]: 167 mg/kg
7 | CCCCC(CC)C(=O)NC(N)=O (centres unmarked) [Compound 5, 1-(2-ethyl-hexanoyl)-urea] | – | – | – | – | – | lack beneficial activity | 158 to 159 °C | –
8 | CCCC(CCC)C(=O)NC(N)=O [Compound 6, 1-(2-propyl-pentanoyl)-urea] | 53.8 mg/kg | 76.8 mg/kg | 57.8 mg/kg | 105 mg/kg | – | lack beneficial activity | – | ED50 ([5]; rats, intraperitoneal): > 180 mg/kg
9 | CC(C)CC(=O)NC(N)=O [Compound 7, 3-methylbutanoylurea] | > 250 mg/kg | 83 mg/kg | – | – | < 500 mg/kg | lack beneficial activity | – | –
10 | CCC(C)C(=O)NC(N)=O (centres unmarked) [Compound 8, 2-methylbutanoylurea] | – | – | – | – | – | lack beneficial activity | 178 to 180 °C | –
11 | CC(C)(C)C(=O)NC(N)=O [Compound 9, 2,2-dimethylpropanoylurea] | 69.4 mg/kg | 29.8 mg/kg | – | – | 228 mg/kg | – | 148 to 149 °C | –
12 | CC1(C)C(C(=O)NC(N)=O)C1(C)C [Reference Compound 1, N-(2,2,3,3-tetramethylcyclopropanecarbonyl)urea] | – | – | – | – | – | – | – | ED50 rat-MES model [14]: 29 mg/kg; ED50 rat-scMet model [15]: 92 mg/kg
13 | CC1(C)C(C(=O)NCC(N)=O)C1(C)C [Reference Compound 2, N-(2,2,3,3-tetramethylcyclopropylcarbonyl)glycinamide] | – | – | – | – | – | – | – | ED50 rat-MES model [14]: 73 mg/kg; ED50 rat-scMet model [15]: higher than 250 mg/kg; TD50 [16]: above 500 mg/kg
14 | CCCC(CCC)C(=O)O [Valproic acid, valproic acid] | – | – | – | – | – | – | – | ED50 rat-scMet model [15]: 646 mg/kg; Bicucullin ED50 [17]: 589 mg/kg; Picrotoxin ED50 [18]: 270 mg/kg
